We go through one molecule from patent US8436039B2, “Inhibitors of the ATB(0,+) transporter and uses thereof” (Georgia Health Sciences University Research Institute, Inc., priority 2008, dated 2013).

Molecules are shown by their SMILES. “And” between values parts separate entries of the source, which are not always exact repeats. Equal values may be shown once.

The test has as its target T1, human ATB^0,+ (Homo sapiens, UniProt Q9UN76).
T1 construct: The human ATB^0,+ cDNA was cloned from an MCF7 cell (a human mammary epithelial cancer cell line) cDNA library; expressed in transfected cells; host or cells: Xenopus laevis oocytes injected with 50 ng capped cRNA
T1 sequence (Q9UN76 1-642): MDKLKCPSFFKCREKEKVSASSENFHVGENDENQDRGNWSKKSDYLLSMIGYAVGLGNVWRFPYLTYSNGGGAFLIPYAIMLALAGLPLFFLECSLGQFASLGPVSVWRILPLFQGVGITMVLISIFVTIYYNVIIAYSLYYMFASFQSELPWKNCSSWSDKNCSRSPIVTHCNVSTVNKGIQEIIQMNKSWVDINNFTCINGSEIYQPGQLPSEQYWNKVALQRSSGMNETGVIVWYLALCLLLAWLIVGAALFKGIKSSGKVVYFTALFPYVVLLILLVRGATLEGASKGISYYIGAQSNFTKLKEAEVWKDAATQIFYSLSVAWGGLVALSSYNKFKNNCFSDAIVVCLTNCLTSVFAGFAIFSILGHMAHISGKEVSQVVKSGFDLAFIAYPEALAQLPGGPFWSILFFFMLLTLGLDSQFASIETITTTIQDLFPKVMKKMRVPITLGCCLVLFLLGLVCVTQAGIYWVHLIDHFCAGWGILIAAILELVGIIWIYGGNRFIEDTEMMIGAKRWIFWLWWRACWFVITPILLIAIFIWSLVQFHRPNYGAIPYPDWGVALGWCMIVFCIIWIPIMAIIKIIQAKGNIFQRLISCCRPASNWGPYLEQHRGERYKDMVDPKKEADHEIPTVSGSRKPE
Put plainly: Block of inward currents induced by amino acid mixture simulating plasma in X. laevis oocytes expressing human ATB^0,+. The test is classed as cell-based. The method, then: Capped cRNA from the cloned mouse or human ATB^0,+ cDNA was synthesized using the mMESSAGE mMACHTNE kit (Ambion, Austin, Tex., U.S.A.). Mature oocytes (stage IV or V) from X. laevis were injected with 50 ng of cRNA. Uninjected oocytes served as controls. The oocytes were used for electrophysiological studies 3-6 days after cRNA injection. Electrophysiological studies were performed by the two-microelectrode voltage-clamp method (Nakanishi et al., 2001, J. Physiol. 532, 297-304). Oocytes were superfused with an NaCl-containing buffer (100 mM NaCl, 2 mM KCl, 1 mM MgCl2, 1 mM CaCl2, 3 mM Hepes, 3 mM Mes and 3 mM Tris, pH 7.5), followed by the same buffer containing tryptophan derivatives. The membrane potential was clamped at −50 mV. The differences between the steady-state currents measured in the presence and absence of substrates were considered as the substrate-induced currents. In the analysis of the saturation kinetics of substrate-induced currents, the kinetic parameter K0.5 (i.e. substrate concentration necessary for induction of half-maximal current) was calculated by fitting the values of the substrate-induced currents to the Michaelis-Menten equation. The Na^+ and Cl^− activation kinetics of substrate-induced currents were analysed by measuring the substrate-specific currents in the presence of increasing concentrations of Na^+ (concentration of Cl^− kept constant at 100 mM) or in the presence of increasing concentrations of Cl^− (concentration of Na^+ kept constant at 100 mM). In these experiments, the composition of the superfusion buffer was modified to contain 2 mM potassium gluconate, 1 mM MgSO4 and 1 mM calcium gluconate in place of KCl, MgCl2 and CaCl2 respectively. The data from these experiments were analysed by the Hill equation to determine the Hill coefficient (h; number of Na^+ and Cl^− ions involved in the activation process). The kinetic parameters were determined by using the commercially available computer program Sigma Plot, version 6.0 (SPSS, Chicago, Ill., U.S.A.). Uninjected oocytes were used to determine the currents induced by tryptophan derivatives due to entry via transporters that may be constitutively expressed in the oocytes. At a concentration of 2.5 mM, the currents induced by these compounds were in the range of 0-3 nA in uninjected oocytes. These currents were less than 2% of the corresponding currents induced in ATB^0,+ cRNA-injected oocytes. Therefore the endogenous currents associated with the constitutively expressed transporters were not considered in the analysis of kinetic parameters of ATB^0,+ transport activity.
These studies with α-methyl-DL-tryptophan as a blocker of ATB^0,+ were carried out with L-tryptophan at sub-saturating concentrations. […] Therefore, using the Xenopus oocyte heterologous expression system, we monitored the transport activity of human ATB^0,+ in the presence of an amino acid mixture consisting of 18 different amino acids, each at its respective physiological concentration found in plasma (Glew et al., 2004, Clin. Chim. Acta 342, 179-185) (Table 1). Inward currents were detected under these conditions in oocytes expressing human ATB^0,+. […] We then monitored the ability of α-methyl-DL-tryptophan to block the inward currents induced by the same mixture of amino acids in oocytes expressing human ATB^0,+ (FIG. 4B). […]

Broadly, the inhibition is the change of the read-out against control, counted positive when it falls. `CC(N)(Cc1c[nH]c2ccccc12)C(=O)O` (racemic) [α-methyl-DL-tryptophan]: the inhibition at 2500 µM (2.5 mM, 18 amino acids at plasma concentrations, read-out: maximal inhibition of amino acid mixture-induced currents) is around 85%. The IC50 (18 amino acids at normal plasma concentrations, read-out: concentration necessary to elicit 50% of maximal inhibition (IC50) of amino acid mixture-induced currents) was ~250 µM and 255 µM.
